The results in this text go back to ChEMBL document CHEMBL4811299, “Discovery of a novel class of heteroaryl-pyrrolidinones as positive allosteric modulators of the muscarinic acetylcholine receptor M1” (Bioorg Med Chem Lett, 2021).

The target of data set [1] is T1, Muscarinic acetylcholine receptor M1 (Homo sapiens) (UniProt P11229).
T1 sequence (whole entry): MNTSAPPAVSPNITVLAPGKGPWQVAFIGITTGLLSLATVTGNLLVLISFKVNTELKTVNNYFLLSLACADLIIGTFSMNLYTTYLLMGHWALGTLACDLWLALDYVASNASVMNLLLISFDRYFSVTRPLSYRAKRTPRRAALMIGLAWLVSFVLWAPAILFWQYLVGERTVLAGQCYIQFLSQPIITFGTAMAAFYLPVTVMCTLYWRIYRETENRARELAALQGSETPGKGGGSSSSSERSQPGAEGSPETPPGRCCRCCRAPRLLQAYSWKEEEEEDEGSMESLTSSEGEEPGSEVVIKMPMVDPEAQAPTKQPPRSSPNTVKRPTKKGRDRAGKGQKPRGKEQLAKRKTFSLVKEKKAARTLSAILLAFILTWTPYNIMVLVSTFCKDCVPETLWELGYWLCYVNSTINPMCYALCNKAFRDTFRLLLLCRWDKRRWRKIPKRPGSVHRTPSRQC
Nature of the data set: Positive allosteric modulation of human muscarinic acetylcholine M1 receptor expressed in CHO cells in presence of acetylcholine at EC20 concentration by calcium mobilization assay relative to acetylcholine. The data set is classed as functional, cell-based. As to conditions: time 3.5 min. In general terms: A change in cytosolic calcium serves as a functional read-out for many receptors and channels.

Data set [2] deals with T2, Muscarinic acetylcholine receptor M1 (Homo sapiens, UniProt P11229).
T2 sequence (P11229 whole entry): T1 sequence (whole entry)
Nature of the data set: Positive allosteric modulation of human muscarinic acetylcholine M1 receptor expressed in CHO cells in presence of acetylcholine at EC20 concentration by calcium mobilization assay. The data set is classed as functional, cell-based.

Data set [3] can be described thus: Protein binding in rat brain assessed as unbound fraction measured after 4 hrs by equilibrium dialysis assay. The data set is classed as ADME, tissue-based. Background: In equilibrium dialysis free small molecules cross a membrane that holds back macromolecules.
Data set [4] concerns the target Muscarinic acetylcholine receptor M3 (Homo sapiens, UniProt P20309). The data set can be described thus: Positive allosteric modulation of human muscarinic acetylcholine M3 receptor expressed in CHO cells in presence of acetylcholine at EC20 concentration by calcium mobilization assay. Type of data set: functional, cell-based.
A short description of data set [5]: Protein binding in rat plasma assessed as unbound fraction measured after 4 hrs by equilibrium dialysis assay. Type of data set: ADME, cell-free.
A short description of data set [6]: Protein binding in human plasma assessed as unbound fraction measured after 4 hrs by equilibrium dialysis assay. Type of data set: ADME, cell-free.
Data set [7] can be described thus: Unbound brain-to-plasma concentration ratio of the compound in rat at 0.20 mg/kg, iv administered as cassette dose measured at 0.25 hrs. The data set is classed as ADME, organism-based. As to conditions: 0.2 mg/kg.
A short description of data set [8]: Brain to plasma partition coefficient, Kp of the compound in rat at 0.20 mg/kg, iv administered as cassette dose measured at 0.25 hrs. Type of data set: ADME, organism-based. To be noted: 0.2 mg/kg.
Data set [9] concerns the target T3, Muscarinic acetylcholine receptor M5 (Homo sapiens, UniProt P08912).
T3 sequence (P08912 whole entry): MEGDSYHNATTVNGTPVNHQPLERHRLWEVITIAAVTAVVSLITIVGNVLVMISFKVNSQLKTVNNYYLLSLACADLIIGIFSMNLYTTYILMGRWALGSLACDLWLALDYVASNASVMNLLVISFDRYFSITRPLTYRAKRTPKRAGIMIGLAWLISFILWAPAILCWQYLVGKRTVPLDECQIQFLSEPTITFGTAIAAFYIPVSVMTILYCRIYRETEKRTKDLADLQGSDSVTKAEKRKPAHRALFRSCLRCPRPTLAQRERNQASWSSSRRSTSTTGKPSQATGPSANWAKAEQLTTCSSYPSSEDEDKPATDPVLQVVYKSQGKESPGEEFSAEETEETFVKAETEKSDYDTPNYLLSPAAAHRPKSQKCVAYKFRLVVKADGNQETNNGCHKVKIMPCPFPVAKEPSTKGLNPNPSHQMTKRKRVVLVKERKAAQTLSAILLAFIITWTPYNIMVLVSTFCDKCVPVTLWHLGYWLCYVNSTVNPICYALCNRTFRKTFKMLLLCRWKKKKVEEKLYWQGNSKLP
The data set can be described thus: Positive allosteric modulation of human muscarinic acetylcholine M5 receptor expressed in CHO cells in presence of acetylcholine at EC20 concentration by calcium mobilization assay. Type of data set: functional, cell-based.

Data set [10] addresses T4, Muscarinic acetylcholine receptor M2 (Homo sapiens, UniProt P08172).
T4 sequence (P08172 whole entry): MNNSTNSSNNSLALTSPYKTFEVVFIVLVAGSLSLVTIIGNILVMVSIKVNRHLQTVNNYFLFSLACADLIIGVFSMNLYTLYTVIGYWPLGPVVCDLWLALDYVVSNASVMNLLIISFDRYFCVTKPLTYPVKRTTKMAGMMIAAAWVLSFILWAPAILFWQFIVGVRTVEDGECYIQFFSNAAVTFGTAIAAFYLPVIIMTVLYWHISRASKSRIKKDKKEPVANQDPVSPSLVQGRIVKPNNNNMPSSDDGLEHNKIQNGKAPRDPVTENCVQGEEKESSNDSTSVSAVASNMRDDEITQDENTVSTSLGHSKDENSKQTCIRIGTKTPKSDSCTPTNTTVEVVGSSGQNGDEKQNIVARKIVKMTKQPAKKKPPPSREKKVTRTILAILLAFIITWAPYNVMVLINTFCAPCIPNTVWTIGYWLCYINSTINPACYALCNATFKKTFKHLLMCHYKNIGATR
Nature of the data set: Positive allosteric modulation of human muscarinic acetylcholine M2/Gqi5 receptor expressed in CHO cells in presence of acetylcholine at EC20 concentration by calcium mobilization assay. Type of data set: functional, cell-based.

The mark [11] stands for this setting: filed as positive allosteric modulator.

Some results are limits rather than exact numbers.

Sequence of Muscarinic acetylcholine receptor M3 (P20309 whole entry): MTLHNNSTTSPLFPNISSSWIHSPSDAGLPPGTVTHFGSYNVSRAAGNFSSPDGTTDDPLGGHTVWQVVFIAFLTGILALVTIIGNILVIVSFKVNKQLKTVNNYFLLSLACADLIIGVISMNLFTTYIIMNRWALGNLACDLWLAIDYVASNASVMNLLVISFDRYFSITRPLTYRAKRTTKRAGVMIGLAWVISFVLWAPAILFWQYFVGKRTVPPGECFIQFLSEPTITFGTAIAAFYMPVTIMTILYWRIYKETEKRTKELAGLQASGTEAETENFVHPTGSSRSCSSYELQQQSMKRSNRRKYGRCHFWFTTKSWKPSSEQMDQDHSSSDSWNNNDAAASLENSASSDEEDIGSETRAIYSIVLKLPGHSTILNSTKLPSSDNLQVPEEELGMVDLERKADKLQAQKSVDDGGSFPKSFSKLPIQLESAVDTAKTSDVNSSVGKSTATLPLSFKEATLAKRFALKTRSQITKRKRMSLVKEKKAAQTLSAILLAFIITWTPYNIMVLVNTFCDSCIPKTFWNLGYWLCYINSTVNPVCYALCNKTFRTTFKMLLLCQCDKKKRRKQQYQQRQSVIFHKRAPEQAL

A word on the Emax: it is the greatest response seen or fitted, relative to the assay's reference. In the case of `Cn1cc(-c2ccc(CN3Cc4ccsc4C3=O)c(F)c2)cn1`, the Emax in [1] (setting [11]) worked out at 67%.

By EC50 is commonly meant the concentration needed to bring the measured effect to its halfway point. Consider `Cn1cc2c(-c3cc(F)c(CN4Cc5cnn(CCO)c5C4=O)c(F)c3)cccc2n1`, for which the EC50 in data set [2] was found to be 1.51 µM. The Emax in [1] (setting [11]) is 84%.

On to `COCCn1ncc2c1C(=O)N(Cc1c(F)cc(-c3cccc4nn(C)cc34)cc1F)C2`, for which the concentration for a half-maximal effect (EC50) in [2] came out at 3.93 µM. For the same molecule, the Emax in data set [1] (setting [11]) came out at 84%.

Usually Kp stands for tissue or fluid exposure divided by exposure in the circulation. In the case of `Cn1cc2cc(-c3ccc(CN4Cc5ncsc5C4=O)c(F)c3)ccc2n1`, the EC50 in data set [2] is 2 µM; in [4], over 10 µM; in data set [9] it was over 10 µM; in [10], over 10 µM. Besides, the Fu is given as 0.042 in data set [3], 0.04 in [5] and 0.05 in data set [6]. In data set [7], the “K(p,uu,brain)” value is on record as 2.2. Moreover, the concentration ratio (Kp) in data set [8] turned out to be 2.1. Further, the Emax in data set [1] (setting [11]) is 60%.

Turning to `Cn1cc2c(-c3cc(F)c(CN4Cc5cn(CC6CCCO6)nc5C4=O)c(F)c3)cccc2n1` (configuration not stated), in [2], the EC50 was 3.54 µM. Further, the Emax in data set [1] (setting [11]) was found to be 61%.

Consider `Cn1cc2c(-c3cc(F)c(CN4Cc5ccn(CCCO)c5C4=O)c(F)c3)cccc2n1`, for which the Emax in data set [1] (setting [11]) was determined as 67%.

For the molecule `Cn1cc2c(-c3cc(F)c(CN4Cc5nc[nH]c5C4=O)c(F)c3)cccc2n1`, the EC50 in [2] is over 10 µM.

`Cn1cc2c(-c3cc(F)c(CN4Cc5ncoc5C4=O)c(F)c3)cccc2n1`: the EC50 in data set [2] was over 10 µM.

As to `Cn1cc2c(-c3cc(F)c(CN4Cc5ccn(CCN6CCCC6)c5C4=O)c(F)c3)cccc2n1`, the Emax in [1] (setting [11]) was 56%.

In the case of `Cn1cc2c(-c3cc(F)c(CN4Cc5cn(CCN6CCCC6)nc5C4=O)c(F)c3)cccc2n1`, the Emax in data set [1] (setting [11]) was 57%.

As to `Cn1cc2cc(-c3cc(F)c(CN4Cc5occc5C4=O)c(F)c3)ccc2n1`, the Emax in data set [1] (setting [11]) came out at 45%.

As for `Cn1cc2cc(-c3cc(F)c(CN4Cc5ccsc5C4=O)c(F)c3)ccc2n1`, the Emax in [1] (setting [11]) was found to be 40%.

Regarding `Cn1cc2c(-c3cc(F)c(CN4Cc5cnn(CCN6CCCC6)c5C4=O)c(F)c3)cccc2n1`, the EC50 in data set [2] is 0.739 µM. Besides, the Emax in data set [1] (setting [11]) came to 87%.

On to `Cn1cc2cc(-c3ccc(CN4Cc5sccc5C4=O)c(F)c3)ccc2n1`, for which, in data set [1] (setting [11]), the Emax came out at 51%.

Regarding `Cn1cc2c(-c3cc(F)c(CN4Cc5ccn(CC6CCCO6)c5C4=O)c(F)c3)cccc2n1` (configuration not stated), the Emax in data set [1] (setting [11]) came out at 58%.

On to `Cn1cc2c(-c3cc(F)c(CN4Cc5ccsc5C4=O)c(F)c3)cccc2n1`, for which the EC50 in [2] came out at 2.16 µM. Besides, the Emax in data set [1] (setting [11]) amounted to 66%.

With `Cn1cc2c(-c3cc(F)c(CN4Cc5ocnc5C4=O)c(F)c3)cccc2n1`, the EC50 in data set [2] is over 10 µM.

Turning to `Cc1nn(C)cc1-c1cc(F)c(CN2Cc3cnn(CC4CCCO4)c3C2=O)c(F)c1` (configuration not stated), the Emax in data set [1] (setting [11]) turned out to be 77%.

`Cc1cc(-c2cc(F)c(CN3Cc4cnn(CC5CCCO5)c4C3=O)c(F)c2)ccn1` (configuration not stated): in data set [1] (setting [11]), the maximal effect (Emax) came out at 65%.

Turning to `Cn1cnc2ccc(-c3cc(F)c(CN4Cc5sccc5C4=O)c(F)c3)cc21`, the Emax in data set [1] (setting [11]) came to 60%.

As to `Cn1cc2cc(-c3cc(F)c(CN4Cc5cnn(CC6CCCO6)c5C4=O)c(F)c3)ccc2n1` (configuration not stated), the EC50 in data set [2] was 1.66 µM. For the same molecule, in data set [1] (setting [11]), the Emax came out at 79%.

For `Cn1cc2c(-c3cc(F)c(CN4Cc5cnn(CC6CCCO6)c5C4=O)c(F)c3)cccc2n1` (configuration not stated), the EC50 in data set [2] was 1.12 µM; in [4], over 10 µM; in data set [9] it was over 10 µM; in data set [10], over 10 µM. Besides, the Fu was found to be 0.019 in data set [3], 0.027 in data set [5] and 0.025 in data set [6]. Moreover, in data set [1] (setting [11]), the Emax was 85%.

With `Cn1cc2c(-c3ccc(CN4Cc5sccc5C4=O)c(F)c3)cccc2n1`, the Emax in data set [1] (setting [11]) was found to be 67%.

For the molecule `Cn1cc2cccc(-c3cc(F)c(CN4Cc5cnn(CC6CCCO6)c5C4=O)c(F)c3)c2n1` (configuration not stated), in [1] (setting [11]), the Emax stood at 66%.

As for `Cn1cc2cc(-c3cc(F)c(CN4Cc5sccc5C4=O)c(F)c3)ccc2n1`, in [1] (setting [11]), the Emax was 59%.

In the case of `O=C1c2scnc2CN1Cc1c(F)cc(-c2ccc3ncccc3c2)cc1F`, the EC50 in data set [2] was found to be 8 µM. Besides, the Emax in data set [1] turned out to be 30%.

Turning to `Cc1[nH]cc2c1C(=O)N(Cc1c(F)cc(-c3cccc4nn(C)cc34)cc1F)C2`, the EC50 in data set [2] was over 10 µM.

In the case of `Cn1cc2c(-c3cc(F)c(CN4Cc5sccc5C4=O)c(F)c3)cccc2n1`, the EC50 in [2] was 1.92 µM. The Emax in data set [1] (setting [11]) is 75%.
